According to paper PMC5365662, “A Short Double-Stapled Peptide Inhibits Respiratory Syncytial Virus Entry and Spreading” (Antimicrobial Agents and Chemotherapy, 2017):
Bridge positions count the residues as written; N and C are the ends. Square brackets hold non-standard residues; d marks the D form. Peptide text beside a SMILES is read from it. R8 = C=CCCCCCC[C@@](C)(N)C(=O)O; S5 = C=CCCC[C@](C)(N)C(=O)O

Assays:
[1] = Proteolytic stability assay, chymotrypsin; type: in vitro ADME; conditions: chymotrypsin (isolated protease); 10 μl peptide 0.29 mM in 990 μl 100 mM Tris-HCl pH 8.0, 10 mM CaCl2; 10 μl chymotrypsin 50 μg/ml; 25°C; LC-MS of intact peptide, exponential decay fit; 3 experiments
Protocol: (§1) This is an important parameter to assess for the development of peptide therapeutics. Peptides 4bb, 4ca, and 4a, and the unstapled analog peptide 4, as well as both SAH-RSVFBD isomers, were treated with chymotrypsin or trypsin, and the samples were analyzed by LC/MS to quantify the reaction products over time. […] In comparison, both SAH-RSVFBD isomers were more susceptible to proteolytic degradation, with half-lives of approximately 7 h and 5 min against chymotrypsin and trypsin, respectively.
(§2) In vitro proteolytic degradation was measured via LC-MS using an Agilent Infinity 1280 UHPLC system coupled to an Agilent quadrupole time of flight (QTOF) 6530 instrument with an Agilent Jet Stream electrospray ionization (AJS ESI) source (all from Agilent Technologies, Waldbronn, Germany). Five microliters of digested sample was injected onto a C18 column (Zorbax Eclipse Plus RRHD, 1.8 μm, 2.1 by 100 mm; Agilent Technologies, Waldbronn, Germany) equilibrated with solvent A (5% acetonitrile, 0.2% formic acid) and eluted with a flow rate of 0.4 ml/min over a 5 to 95% gradient of solvent B (95% acetonitrile, 0.2% formic acid) in 5 min, followed by 1.5 min at 95% and 0.5 min posttime. The AJS ESI source was operated with a capillary voltage of 4,000 V and a nozzle voltage of 600 V with a drying gas temperature of 325°C and flow rate of 10 liters/min, nebulizing gas pressure of 20 lb/in^2, and a sheath gas temperature of 300°C and flow rate of 11 liters/min. Mass spectra were acquired in the positive-ion mode from 100 to 3,200 m/z at a rate of 1 scan per second in extended dynamic range (2 GHz) mode. The fragmentor, skimmer, and octopole RF voltages were set to 200, 60, and 750 V, respectively. Data were acquired and analyzed with the Agilent MassHunter Workstation (version B.05).
(§3) Peptide digestion was performed as follows: 10 μl of peptide at 0.29 mM in 50:50 acetonitrile-water was dissolved in 990 μl 100 mM Tris-HCl (pH 8.0) with 10 mM CaCl2. Following measurement of the undigested (t0) sample, 10 μl of chymotrypsin at 50 μg/ml in 100 mM Tris-HCl (pH 8.0) with 10 mM CaCl2 was added, and the sample was vortexed and placed immediately in the autosampler, set to 25°C. The level of intact peptide was quantified by serial injection over time. Integration of the intact peptide compound chromatogram was performed using the Agilent Molecular Feature Extraction (MFE) algorithm. The value of the fit at t = 0 min was used to calculate the percentage of the intact peptide at each point as follows: Percent intact (t) = [Vol (t)/Volt0] × 100, where Vol is the total volume calculated using Find Compounds by Molecular Feature and Volt0 is the value of the fit at time t = 0. A plot of the intact peptide MFE peak area over time gave an exponential decay curve, from which the half-life was determined using MatLab […].

[2] = Proteolytic stability assay, trypsin; type: in vitro ADME; conditions: trypsin (isolated protease); 100 mM Tris-HCl pH 8.0, 10 mM CaCl2, 25°C; LC-MS of intact peptide, exponential decay fit; 3 experiments
Protocol: as §1, §2
as §3, with “Integration of the intact peptide compound chromatogram was performed using the Agilent Molecular Feature Extraction (MFE) algorithm.” left out

circular dichroism = conditions: 10 mM phosphate; pH 7.5; 25 °C; 50 uM
[3] = Far-UV circular dichroism, α-helical content; type: physicochemical; conditions: CD, indicator of α-helical stability
Protocol: The circular dichroism spectra were acquired on a Chirascan spectropolarimeter. The samples were prepared in 10 mM phosphate buffer, pH 7.5, at a peptide concentration of 50 μM. Data were recorded at 25°C by step scan from 180 nm to 260 nm in a 0.5-mm path length quartz cell using 1-nm wavelength increments and a response time of 1 s. The data were converted to per residue molar ellipticity units [θ] (degree per square centimeter per decimole per residue) and smoothed using the Igor Pro software. The percentage of helicity was calculated as described previously ([35]).

[4] = molecular target: 5HB, a recombinant protein containing 3 HR1 domains covalently attached to 2 HR2 domains; conditions: competition with fluorescently labeled T108 probe (2 nM), 5HB 50 nM, 10 min preincubation + 30 min room temperature, duplicates
[5] = tested on: recombinant GFP-expressing RSV (strain A2) in A549 cells; type: cell-based, human respiratory syncytial virus; conditions: A549 cells, eGFP RSV, GFP-positive cells by FACS 24 h p.i.
Protocol: A549 cells were infected with a recombinant green fluorescent protein (GFP)-expressing RSV (strain A2) ([23]), and the inhibitory activity of the peptide was quantified by flow cytometry.
Each peptide was diluted 3 times by 2-fold serial dilutions. eGFP RSV virus at an MOI of 0.5 was used for the infection, and GFP-positive cells were counted by FACS analysis 24 h p.i. The GFP data were normalized to the fluorescence values observed with virus only and plotted as percent inhibition.
Serial 4-fold dilutions of inhibitors were mixed with eGFP-encoding RSV virus ([23]) with a volume of virus required to achieve approximately 50% of infection in medium containing 2% fetal calf serum. The resulting mixture was added to 24-well plates containing A549 cells. Cells were incubated for 2 h at 37°C, the medium was replaced, and cells were incubated for an additional 24 h. Cells were treated with 300 μl of trypsin for 10 min at 37°C, and the detached cells were diluted in 1 ml of culture medium. Following centrifugation at 1,700 rpm, the pellet was resuspended in 300 μl of PBS–1% fetal bovine serum (FBS) (vol/vol) and GFP-positive cells were counted by fluorescence-activated cell sorter (FACS) analysis. The GFP data were normalized to the fluorescence value observed with virus only. The resulting inhibition curves were fitted in Igor Pro as described above.

Structure (SMILES): CC[C@H](C)[C@@H]1NC(=O)[C@H](CO)NC(=O)[C@](C)(NC(=O)[C@H](CC(=O)O)NC(=O)[C@H](Cc2ccccc2)NC(C)=O)CCCCCCC=CCCC[C@@](C)(C(=O)N[C@@H](CCCCN)C(=O)N[C@H](C(=O)N[C@@H](CC(N)=O)C(=O)N[C@@H](CCC(N)=O)C(=O)N[C@@H](CO)C(=O)N[C@@H](CC(C)C)C(=O)N[C@@H](C)C(=O)N[C@@H](Cc2ccccc2)C(=O)N[C@H](C(=O)N[C@]2(C)CCCCCCC=CCCC[C@@](C)(C(=O)N[C@@H](CC(N)=O)C(=O)N[C@H](C(=O)N[C@@H](CC(N)=O)C(=O)N[C@@H](C)C(=O)NCC(=O)N[C@@H](CCCCN)C(=O)N[C@@H](CO)C(=O)N[C@H](C(N)=O)[C@@H](C)O)C(C)C)NC(=O)[C@H](CC(C)C)NC(=O)[C@H](CC(C)C)NC(=O)[C@H](CCC(=O)O)NC(=O)[C@H](CC(=O)O)NC(=O)[C@H](CO)NC(=O)[C@H](CCCCN)NC2=O)[C@@H](C)CC)[C@@H](C)CC)NC(=O)[C@H](CC(N)=O)NC(=O)[C@H](C(C)C)NC(=O)[C@H](CCC(N)=O)NC(=O)[C@H](CO)NC1=O [RSV-SAHBD (E), reference compound]
- half-life at 2.9 µM [1]: 6.5 h
- half-life [2]: 1.2 min

Structure (SMILES): CC[C@H](C)[C@H](NC(=O)[C@H](CCCCN)NC(=O)[C@]1(C)CCCC=CCCC[C@](C)(NC(=O)[C@@H](NC(=O)[C@H](CO)NC(=O)[C@]2(C)CCCC=CCCC[C@](C)(NC(=O)[C@H](CO)NC(=O)[C@@H]3CCCN3C(=O)[C@H](Cc3ccccc3)NC(=O)[C@H](CCC(=O)O)NC(C)=O)C(=O)N[C@@H](CCC(=O)O)C(=O)N[C@@H](Cc3ccccc3)C(=O)N[C@@H](CC(=O)O)C(=O)N2)[C@@H](C)CC)C(=O)N[C@@H](CCC(N)=O)C(=O)N[C@@H](C(C)C)C(=O)N[C@@H](CC(N)=O)C(=O)N1)C(=O)N[C@@H](CC(N)=O)C(N)=O [Peptide 1eg] (Ac-EFPS[S5]EFD[S5]SI[S5]QVN[S5]KIN-NH2; staple 5-9, 12-16)
- helicity (circular dichroism): 35.3%
- θ208/θ222 molar ellipticity ratio [3]: ~1
- Kd [4]: 24 ± 4 µM

Structure (SMILES): CC[C@H](C)[C@H](NC(=O)[C@H](CCCCN)NC(=O)[C@H](CCC(=O)O)NC(=O)[C@H](CC(N)=O)NC(=O)[C@@H](NC(=O)[C@H](CCC(N)=O)NC(=O)[C@]1(C)CCCC=CCCCCCC[C@@](C)(NC(=O)[C@H](CO)NC(=O)[C@@H]2CCCN2C(=O)[C@H](Cc2ccccc2)NC(=O)[C@H](CCC(=O)O)NC(C)=O)C(=O)N[C@@H](CCC(=O)O)C(=O)N[C@@H](Cc2ccccc2)C(=O)N[C@@H](CC(=O)O)C(=O)N[C@@H](C)C(=O)N[C@@H](CO)C(=O)N[C@@H]([C@@H](C)CC)C(=O)N1)C(C)C)C(=O)N[C@@H](CC(N)=O)C(N)=O [Peptide 1a] (Ac-EFPS[R8]EFDASI[S5]QVNEKIN-NH2; staple 5-12)
- helicity (circular dichroism): 14.2%
- Kd [4]: 9.8 ± 1.5 µM
- inhibition of RSV-eGFP infection (in words) [5]: none

Structure (SMILES): CC[C@H](C)[C@H](NC(=O)[C@H](CCCCN)NC(=O)[C@H](CCC(=O)O)NC(=O)[C@H](CC(N)=O)NC(=O)[C@@H](NC(=O)[C@]1(C)CCCC=CCCC[C@](C)(NC(=O)[C@H](CC(=O)O)NC(=O)[C@H](Cc2ccccc2)NC(=O)[C@H](CCC(=O)O)NC(=O)[C@H](CC(=O)O)NC(=O)[C@H](CO)NC(=O)[C@@H]2CCCN2C(=O)[C@H](Cc2ccccc2)NC(=O)[C@H](CCC(=O)O)NC(C)=O)C(=O)N[C@@H](CO)C(=O)N[C@@H]([C@@H](C)CC)C(=O)N[C@@H](CO)C(=O)N1)C(C)C)C(=O)N[C@@H](CC(N)=O)C(N)=O [Peptide 1f] (Ac-EFPSDEFD[S5]SIS[S5]VNEKIN-NH2; staple 9-13)
- helicity (circular dichroism): 35.2%
- Kd [4]: 7.4 ± 1.3 µM
- inhibition of RSV-eGFP infection (in words) [5]: none

Structure (SMILES): CC[C@H](C)[C@@H]1NC(=O)[C@H](Cc2ccccc2)NC(=O)[C@H](C)NC(=O)[C@H](CC(C)C)NC(=O)[C@H](CO)NC(=O)[C@](C)(NC(=O)[C@H](CCC(=O)O)NC(C)=O)CCCCCCC=CCCC[C@@](C)(C(=O)N[C@@H](CO)C(=O)N[C@@H](CC(=O)O)C(=O)N[C@@H](CCC(=O)O)C(=O)N[C@@H](CC(C)C)C(=O)N[C@@H](CC(C)C)C(=O)N[C@@H](Cc2c[nH]cn2)C(=O)N[C@@H](CC(N)=O)C(=O)N[C@H](C(N)=O)C(C)C)NC(=O)[C@H](CCCNC(=N)N)NC1=O [Peptide 3d] (Ac-E[R8]SLAFIR[S5]SDELLHNV-NH2; staple 2-9)
- helicity (circular dichroism): 24.4%
- Kd [4]: 3.2 ± 2.7 µM
- inhibition of RSV-eGFP infection (in words) [5]: none

Structure (SMILES): CC[C@H](C)[C@H](NC(=O)[C@H](Cc1ccccc1)NC(=O)[C@H](C)NC(=O)[C@H](CC(C)C)NC(=O)[C@H](CO)NC(=O)[C@H](CCC(N)=O)NC(=O)[C@H](CCC(=O)O)NC(C)=O)C(=O)N[C@@H](CCCNC(=N)N)C(=O)N[C@]1(C)CCCCCCC=CCCC[C@@](C)(C(=O)N[C@H](C(N)=O)C(C)C)NC(=O)[C@H](Cc2c[nH]cn2)NC(=O)[C@H](CC(C)C)NC(=O)[C@H](CC(C)C)NC(=O)[C@H](CCC(=O)O)NC(=O)[C@H](CC(=O)O)NC(=O)[C@H](CO)NC1=O [Peptide 3f] (Ac-EQSLAFIR[R8]SDELLH[S5]V-NH2; staple 9-16)
- helicity (circular dichroism): 26.4%
- Kd [4]: 4.1 ± 1.9 µM
- inhibition of RSV-eGFP infection (in words) [5]: none
